Test results published in patent US5688913A, “CS-1 peptidomimetics, compositions and methods of using the same” (Cytel Corporation, priority 1995, dated 1997).
Like-named read-outs stand apart in the source and are kept apart here. Numbered stars: 1 amine (or outer) side, 2 acyl side, 3 side chain; on linkers, the order of the positions; unused ones are H or OH. Square brackets hold non-standard residues; d marks the D form. Peptide text beside a SMILES is read from it. * marks the point of attachment. X20 = O=C(CCCCCO[C@@H]1O[C@H](CO)[C@@H](O)[C@H](O)[C@H]1N[*:1])[*:2]; Benzenesulfonyl = O=S(=O)(c1ccccc1)*; Cha = N[C@@H](CC1CCCCC1)C(=O)O; NHPhenethyl = c1ccc(CCN*)cc1; Nicotinoyl = O=C(c1cccnc1)*; Morpholide = C1CN(*)CCO1; Piperidide = C1CCN(*)CC1; Pyrrolidide = C1CCN(*)C1; PhAc = O=C(Cc1ccccc1)*; X14 = O=C(c1cc[nH]n1)*; CO = O=C([*:1])[*:2]; NHBn = c1ccc(CN*)cc1; Bz = O=C(c1ccccc1)*; NHPh = c1ccc(N*)cc1; NHBu = CCCCN*

Target: VLA-4 (Homo sapiens, UniProt P05556+P13612)
Sequence (P13612 34-1032): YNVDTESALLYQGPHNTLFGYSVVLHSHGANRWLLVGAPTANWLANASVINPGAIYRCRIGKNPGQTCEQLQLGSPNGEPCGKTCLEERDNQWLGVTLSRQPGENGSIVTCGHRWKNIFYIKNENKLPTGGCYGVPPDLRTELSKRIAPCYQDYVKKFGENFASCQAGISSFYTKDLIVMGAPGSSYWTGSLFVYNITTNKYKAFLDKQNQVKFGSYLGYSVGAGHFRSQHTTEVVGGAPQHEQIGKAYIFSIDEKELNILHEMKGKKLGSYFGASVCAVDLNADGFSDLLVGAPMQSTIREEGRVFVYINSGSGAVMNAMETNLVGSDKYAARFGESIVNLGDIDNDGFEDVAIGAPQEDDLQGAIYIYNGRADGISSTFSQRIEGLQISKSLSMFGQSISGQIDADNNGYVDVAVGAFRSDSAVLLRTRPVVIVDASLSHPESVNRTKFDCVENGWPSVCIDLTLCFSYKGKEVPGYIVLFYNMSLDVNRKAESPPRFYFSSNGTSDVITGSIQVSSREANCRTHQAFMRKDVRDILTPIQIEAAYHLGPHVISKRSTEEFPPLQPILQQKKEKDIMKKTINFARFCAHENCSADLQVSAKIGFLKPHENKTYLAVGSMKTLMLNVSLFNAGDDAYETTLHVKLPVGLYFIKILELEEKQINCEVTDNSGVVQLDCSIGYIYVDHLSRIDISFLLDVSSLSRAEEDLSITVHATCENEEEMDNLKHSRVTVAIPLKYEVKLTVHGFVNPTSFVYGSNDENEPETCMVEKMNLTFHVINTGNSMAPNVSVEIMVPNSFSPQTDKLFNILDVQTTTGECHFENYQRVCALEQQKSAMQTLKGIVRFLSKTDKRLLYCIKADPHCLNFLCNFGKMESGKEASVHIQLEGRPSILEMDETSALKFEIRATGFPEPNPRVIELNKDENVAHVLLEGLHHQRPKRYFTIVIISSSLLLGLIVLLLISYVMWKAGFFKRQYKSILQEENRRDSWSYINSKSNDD
Sequence (P05556 21-798): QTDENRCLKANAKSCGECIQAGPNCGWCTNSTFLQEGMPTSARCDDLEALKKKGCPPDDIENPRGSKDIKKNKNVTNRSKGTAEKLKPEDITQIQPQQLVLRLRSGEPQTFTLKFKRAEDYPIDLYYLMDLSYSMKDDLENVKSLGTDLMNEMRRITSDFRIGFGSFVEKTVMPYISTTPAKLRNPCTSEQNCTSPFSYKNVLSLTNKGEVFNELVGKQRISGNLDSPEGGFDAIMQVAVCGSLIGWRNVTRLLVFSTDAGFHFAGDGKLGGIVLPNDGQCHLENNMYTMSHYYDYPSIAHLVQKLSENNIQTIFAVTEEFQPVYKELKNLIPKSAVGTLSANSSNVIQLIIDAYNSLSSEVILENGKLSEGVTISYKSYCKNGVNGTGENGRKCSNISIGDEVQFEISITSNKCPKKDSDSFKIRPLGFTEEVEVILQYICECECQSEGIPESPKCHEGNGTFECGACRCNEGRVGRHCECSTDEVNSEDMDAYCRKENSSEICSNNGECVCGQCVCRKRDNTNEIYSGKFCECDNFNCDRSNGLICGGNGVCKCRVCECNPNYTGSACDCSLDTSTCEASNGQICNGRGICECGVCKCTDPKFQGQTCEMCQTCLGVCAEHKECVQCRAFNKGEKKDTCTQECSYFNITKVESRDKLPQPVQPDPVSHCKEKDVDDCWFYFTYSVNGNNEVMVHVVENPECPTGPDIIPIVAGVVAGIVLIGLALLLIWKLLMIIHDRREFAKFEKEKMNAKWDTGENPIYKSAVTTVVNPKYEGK
Assay: cell-based
Assay type: cell-based
Set-up: host or cells: Jurkat (human T lymphoblastic line)
Procedure: Binding inhibition is measured here as a concentration of peptide that inhibits one-half the binding between a standard number of Jurkat cells and a standard amount of CS-1 peptide bound to the surface of a microtiter plate well. Those concentrations are conveniently expressed as IC50 values, smaller numbers indicating a lower concentration required to inhibit 50 percent binding and therefore greater potency. Further specifics of this assay are provided hereinafter.
Jurkat cells (ATCC TIB 152), a human T lymphoblastic line, labeled with ^51 chromium were used to assay in vitro binding inhibition provided by various peptides discussed herein.
The plates were prepared as follows: The 25-mer CS-1 peptide (SEQ ID NO:1) dissolved at 0.5-1 μg/ml in a buffer of 0.1M NaHCO3 at pH 9.5 that also contained 10 μg/ml of bovine serum albumin (BSA) or a conjugate of the CS-1 peptide linked to ovalbumin (CS-1-OVA) dissolved at 1-2.5 μg/ml in the same buffer was used as the substrate. Each well of the microtiter plates was coated with 50 μl of substrate or buffer alone for controls. The wells were permitted to dry out completely and were then rinsed twice with PBS at pH 7.4. Non-specific binding sites of each well were then blocked using 200 μl per well of RPMI/1 percent BSA for two hours at room temperature. Both solid phase-affixed substrates provided similar results.
Jurkat cells (3-5×10^6 cells) were placed into a 15 ml Falcon™ round-bottom tube with a cap. The tube was centrifuged, and the extra medium was then removed.
Two hundred microliters of a ^51 Cr labeling solution were added to the centrifuged cells and maintained in contact with the cells for 90-120 minutes in a warm room. This procedure typically provides about 50,000-100,000 cpm/well with about 80-100 percent cell viability. Longer contact times provide a greater amount of labeling but lower cell viability.
The labeled cells are washed with (i) complete medium, (ii) 1 mM EDTA/PBS and then (iii) RPM1/1 percent BSA free of serum components. The cells are centrifuged after each washing. The cells are finally resuspended in serum-free RPMI/1 percent BSA at a concentration of 1×10^6 viable cells/ml, which provides a concentration that is diluted by one-half in the assay.
Inhibitor peptides are prepared as stock solutions at 20 mg/ml in DMSO in 1.5 ml cryogenic screwcap vials, and were stored at -70° C. Using Flow™ round-bottom or V-bottom microtiter plates, the inhibitor peptides were prepared at twice the assay concentration in RPMI/1 percent BSA at 60 μl well.
Four initial dilutions were typically used.
The ^51 Cr-labeled cells (1×10^6 cells at 60 μl/well) were then admixed with the diluted peptide solutions. The admixtures were maintained at room temperature (about 22° C.) for 30 minutes.
One hundred microliters of each inhibitor peptide/cell admixture were transferred to the substrate-coated wells. This was done in triplicate for each dilution. The resulting plates were incubated for 30 minutes at 37° C. and then washed gently three times with RPMI/1 percent BSA at 200 μl/well. Binding was observed microscopically, particularly after the second wash.
The bound cells were then lysed by the addition of a 0.5 percent solution of sodium dodecylsulfate in water at 100 μ/l well. The resulting solutions were then processed for counting and calculation of IC50 values following usual procedures. Appropriate positive and negative controls were used with each plate so that the results of separate assays could be normalized and compared.
The data of Table 1 are so normalized.

[1] = normalized IC50 relative to standard peptide of SEQ ID NO:3 (=1), about one-tenth or less of the standard is assigned zero

Row | Compound | RELATIVE POTENCY (relative peptide inhibition of VLA-4 binding CS-1) | RELATIVE POTENCY (relative peptide inhibition of VLA-4 binding CS-1) [1] | further results
1 | NC(=O)[C@H]1CCCN1C(=O)[C@H](Cc1ccccc1)NC(=O)[C@H](CC(=O)O)NC(=O)[C@H](CC1CCCCC1)NC(=O)[C@@H](N)Cc1ccccc1 (H-F[Cha]DF[dP]-NH2) | 1 | – | –
2 | CC(C)C[C@H](NC(=O)c1cc[nH]n1)C(=O)N[C@@H](CC(=O)O)C(=O)N[C@@H](Cc1ccccc1)C(=O)N1CCC[C@@H]1C(N)=O [X L D F p pyrazolecarbonyl amide] (X14-LDF[dP]-NH2; N-terminus assumed) | 35 | – | –
3 | CC(C)C[C@H](NC(=O)Cc1ccccc1)C(=O)N[C@@H](CC(=O)O)C(=O)N[C@@H](Cc1ccc(O)cc1)C(=O)N1CCC[C@@H]1C(N)=O [X L D Y p phenylacetyl amide, N-phenylacetyl-Leu-Asp-Tyr-D-Pro-NH2] (PhAc-LDY[dP]-NH2) | – | 640 | RELATIVE POTENCY (relative peptide inhibition of VLA-4 binding CS-1) (normalized IC50 relative to standard peptide of SEQ ID NO:3 (=1), about one-tenth or less of the standard is assigned zero, listed as X L D Y P phenylacetyl amide): 405
4 | CC(C)[C@H](NC(=O)[C@H](CC(=O)O)NC(=O)[C@H](CC1CCCCC1)NC(=O)c1ccccc1)C(=O)N1CCC[C@@H]1C(N)=O (Bz-[Cha]DV[dP]-NH2) | – | 11 | –
5 | CC[C@H](C)[C@H](N)C(=O)N[C@@H](CC1CCCCC1)C(=O)N[C@@H](CC(=O)O)C(=O)N[C@@H](Cc1ccccc1)C(=O)N1CCC[C@@H]1C(N)=O (H-I[Cha]DF[dP]-NH2) | 1 | – | –
6 | CC(C)C[C@H](NS(=O)(=O)c1ccccc1)C(=O)N[C@@H](CC(=O)O)C(=O)N[C@@H](Cc1ccccc1)C(=O)N1CCC[C@@H]1C(N)=O [X L D F p phenylsulfonyl amide] (Benzenesulfonyl-LDF[dP]-NH2) | 0 | – | –
7 | CC(C)C[C@H](NC(=O)Cc1ccccc1)C(=O)N[C@@H](CC(=O)O)C(=O)N[C@@H]1CCCCNC1=O | – | 17 | –
8 | CC(C)C[C@H](NC(=O)Nc1ccccc1)C(=O)N[C@@H](CC(=O)O)C(=O)N[C@@H](Cc1ccccc1)C(=O)N1CCC[C@@H]1C(N)=O [X L D F p anilinocarbonyl amide] ({NHPh-CO}-LDF[dP]-NH2) | 227 | – | –
9 | CC(C)C[C@H](NC(=O)c1ccc2ccccc2c1)C(=O)N[C@@H](CC(=O)O)C(=O)N[C@H](C(=O)N1CCC[C@@H]1C(N)=O)C(C)C [X L D V p 2-naphthoyl amide] | 1 | – | –
10 | CC(C)C[C@H](NC(=O)Cc1ccccc1)C(=O)N[C@@H](CC(=O)O)C(=O)N[C@H](C(=O)N1CCC[C@@H]1C(N)=O)C(C)C [X L D V p phenylacetyl amide, N-phenylacetyl-Leu-Asp-Val-D-Pro-NH2] | – | 106 | –
11 | CC(C)C[C@H](N)C(=O)N[C@@H](CC(=O)O)C(=O)N[C@H](C(N)=O)C(C)C [L D V free amine amide, reference compound] (H-Leu-Asp-Val-NH2) | 0 | – | RELATIVE POTENCY (relative peptide inhibition of VLA-4 binding CS-1) (normalized IC50 relative to standard peptide of SEQ ID NO:3 (=1), about one-tenth or less of the standard is assigned zero, listed as Leu-Asp-Val (LDV) N-free amine C-amide): zero
12 | CC(C)C[C@H](NC(=O)Cc1ccccc1)C(=O)N[C@@H](CC(=O)O)C(=O)NCc1ccccc1 [X L D Z phenylacetyl benzylamide] (PhAc-Leu-Asp-NHBn) | – | 19 | –
13 | CC(C)C[C@H](NC(=O)Cc1ccccc1)C(=O)N[C@@H](CC(=O)O)C(=O)NCCc1ccccc1 [X L D Z phenylacetyl phenethylamide] (PhAc-Leu-Asp-NHPhenethyl) | – | 19 | –
14 | CC(C)C[C@H](NC(=O)Cc1ccc(O)c(O)c1)C(=O)N[C@@H](CC(=O)O)C(=O)N[C@@H](Cc1ccccc1)C(=O)N1CCCCC1 | 81 | – | –
15 | CC(C)C[C@H](NC(=O)c1cccc2ccccc12)C(=O)N[C@@H](CC(=O)O)C(=O)N[C@H](C(=O)N1CCC[C@@H]1C(N)=O)C(C)C [X L D V p 1-naphthoyl amide] | 1 | – | –
16 | CC(C)C[C@H](NC(=O)C1CCCCC1)C(=O)N[C@@H](CC(=O)O)C(=O)N[C@H](C(=O)N1CCC[C@@H]1C(N)=O)C(C)C [X L D V p cyclohexanecarbonyl amide] | 5 | – | –
17 | CC[C@H](C)[C@H](N)C(=O)N[C@@H](CC(C)C)C(=O)N[C@@H](CC(=O)O)C(=O)N[C@H](C(=O)N1CCC[C@H]1C(=O)O)C(C)C [I L D V P free amine free acid, reference compound] (H-ILDVP-OH) | 1 | – | –
18 | CC(C)CC(C(=O)NCc1ccccc1)C(=O)N[C@@H](CC(=O)O)C(=O)N[C@@H](Cc1ccccc1)C(=O)N1CCC[C@@H]1C(N)=O (stereo partly shown) | 2 | – | –
19 | CCC(C)C(N)C(=O)N[C@@H](CC(C)C)C(=O)N[C@@H](CC(=O)O)C(=O)N[C@H](C(=O)N1CCC[C@@H]1C(N)=O)C(C)C (single isomer, unassigned) [I L D V p free amine amide] | 1 | – | –
20 | CC(C)C[C@H](NC(=O)c1cccnc1)C(=O)N[C@@H](CC(=O)O)C(=O)N[C@@H](Cc1ccccc1)C(=O)N1CCC[C@@H]1C(N)=O [X L D F p pyridine-3-carbonyl amide] (Nicotinoyl-LDF[dP]-NH2) | 201 | – | –
21 | CC(C)C[C@@H](C(=O)N[C@@H](CC(=O)O)C(=O)N[C@@H](Cc1ccccc1)C(=O)N1CCCCC1)N1C(=O)NC(c2ccccc2)C1=O (stereo partly shown) | 34 | – | –
22 | CC(=O)N[C@@H](CC(C)C)C(=O)N[C@@H](CC(=O)O)C(=O)N[C@@H](Cc1ccccc1)C(N)=O [L D F acetyl amide] (Ac-Leu-Asp-Phe-NH2) | < 1 | – | –
23 | CC(C)C[C@H](NC(=O)Cc1ccccc1)C(=O)N[C@@H](CC(=O)O)C(=O)N[C@@H](Cc1ccccc1)C(=O)N1CCCC1 [X L D F Z phenylacetyl pyrrolidinamide] (PhAc-Leu-Asp-Phe-Pyrrolidide) | – | 250 | –
24 | CC(C)C[C@H](NC(=O)CCc1ccccc1)C(=O)N[C@@H](CC(=O)O)C(=O)N[C@H](C(=O)N1CCC[C@@H]1C(N)=O)C(C)C [X L D V p phenylpropionyl amide] | 14 | – | –
25 | CC(C)C[C@H](NC(=O)Cc1ccccc1)C(=O)N[C@@H](CC(=O)O)C(=O)NCC(=O)N1CCOCC1 [X L D G Z phenylacetyl morpholinamide] (PhAc-Leu-Asp-Gly-Morpholide) | – | 9 | –
26 | CC(C)C[C@H](NC(=O)Cc1ccccc1)C(=O)N[C@@H](CC(=O)O)C(=O)NC1Cc2ccccc2CN1 (stereo partly shown) | – | 3 | –
27 | CCCCNC(=O)[C@H](Cc1ccccc1)NC(=O)[C@H](CC(=O)O)NC(=O)[C@H](CC(C)C)NC(=O)Cc1ccccc1 [X L D F Z phenylacetyl n-butylamide] (PhAc-Leu-Asp-Phe-NHBu) | – | 3 | –
28 | CC(=O)N[C@@H](CO)C(=O)N[C@@H](Cc1ccccc1)C(=O)N[C@@H](CC(=O)O)C(=O)N[C@@H](Cc1ccccc1)C(=O)N[C@@H](CO)C(N)=O [S F D F S acetyl amide] (Ac-SFDFS-NH2) | < 1 | – | –
29 | CC(=O)N[C@H]1[C@H](OCCCCCC(=O)N[C@@H](Cc2ccccc2)C(=O)N[C@@H](CC(C)C)C(=O)N[C@@H](CC(=O)O)C(=O)N[C@@H](CC(C)C)C(=O)N2CCCCC2)O[C@H](CO)[C@@H](O)[C@@H]1O (Ac-[X20]FLDL-Piperidide) | 41 | – | –
